# Laboratory results from patent US20260132118A1, “SALT FORMS OF R-MDMA AND METHODS USING THE SAME” (EmpathBio, Inc., priority 2022, published 2026).
# “And” between values parts separate entries of the source, which are not always exact repeats. Equal entries are not always repeated.
# Tests used:
# [1] = background; cited from earlier work
# [2] = Approximate aqueous solubility by aliquot addition; details: for Solubility: approximate aqueous solubility; for Observations (solubility experiment): aqueous
# Description: The small sample sizes, aliquot volumes, and kinetic nature of the solubility measurements contribute a degree of uncertainty to the reported values.
# [3] = Physical stability testing: stressing solids at elevated relative humidity or storage, monitored by XRPD; type: physicochemical
# [4] = Dynamic Vapor Sorption (DVS); type: physicochemical; details: for DVS weight loss: desorption 95-6% RH; for DVS weight loss / DVS weight gain: 10% RH increments, nitrogen purge; for Solid form post-DVS (XRPD): post-DVS solids; for DVS weight gain: sorption 5-95% RH
# Method: DVS data was collected on a Surface Measurement System DVS Intrinsic instrument. Samples were not dried prior to analysis. […] The equilibrium criterion used for analysis was less than 0.0100% weight change in 5 minutes with a maximum equilibration time of 3 hours. Data was not corrected for the initial moisture content of the samples.
# [5] = listed as O-methyl Mandelate Form A
structure (smiles),measurement,setting,value
"CNC(C)Cc1ccc2c(c1)OCO2 (centres unmarked) [MDMA free base, 3,4-Methylenedioxymethamphetamine]",Solubility in water (in words),[1],insoluble in water
CNC(C)Cc1ccc2c(c1)OCO2.Cl (centres unmarked) [MDMA hydrochloride salt],Solubility in water (in words),[1],soluble in water
CN[C@H](C)Cc1ccc2c(c1)OCO2.O=[N+]([O-])O [Nitrate Form A],Solubility,[2],3 ± 1 mg/mL and 3 mg/mL
same,Observations (solubility experiment),[2],clear solution
same,Physical stability upon stressing at ~90% RH,[3]; 13 days,remained physically stable
CN[C@H](C)Cc1ccc2c(c1)OCO2.COC(C(=O)O)c1ccccc1 [O-Methyl Mandelate Form A],DVS desorption behaviour / hysteresis,[4]; 5% to 95% RH,all mass gained in sorption was lost on desorption with minimal hysteresis
same,Hygroscopicity (in words),[4]; DVS isotherm,low kinetic hygroscopicity
same,Kinetic hygroscopicity (sorption/desorption),[4]; between 5% and 95% RH,0.2%
same,DVS weight loss,[4],0.21±0.02%
same,DVS weight loss,[4]; [5],0.21%
same,Solid form post-DVS (XRPD),[4],remained unchanged
same,Solid form post-DVS (XRPD),[4]; [5],O-Methyl Mandelate Form A
same,DVS weight gain,[4],0.18±0.02% and 0.18%
same,DVS weight gain,[4]; [5],0.18%
same,Solubility,[2],26 ± 1 mg/mL and ~26 mg/mL
same,Observations (solubility experiment),[2],clear solution
same,Physical stability upon stressing at ~90% RH,[3]; 8 days,remained physically stable
